Assay results from patent US12049450B2, “Pyridyloxy-carboxylate derivative and preparation method therefor, herbicidal composition, and use” (Qingdao Kingagroot Chemical Compound Co., Ltd., priority 2018, dated 2024).

Experiments:
Test in all cases: Post-emergence test experiment (greenhouse pot, spray at 2-3 leaf stage)
Assay type in all cases: in vivo
Conditions in all cases: 1000 g/ha; post-emergence spray at 2-3 leaf stage; assessed after 3 weeks; fresh weight inhibition rate
Abutilon theophrasti = tested on: Abutilon theophrasti
From the text: (§1) The activity level standard of harmful plants destruction (i. e. growth inhibition rate) is as follows: • Level 5: the growth inhibition rate is greater than 85%; • Level 4: the growth inhibition rate is equal to or greater than 60% and less than 85%; • Level 3: the growth inhibition rate is equal to or greater than 40% and less than 60%; • Level 2: the growth inhibition rate is equal to or greater than 20% and less than 40%; • Level 1: the growth inhibition rate is equal to or greater than 5% and less than 20%; • Level 0: the growth inhibition rate is less than 5%;
(§2) The above described growth inhibition rate is fresh weight inhibition rate.
(§3) Post-emergence test experiment: Monocotyledonous and dicotyledonous weed seeds and main crop seeds (i. e. wheat, corn, rice, soybean, cotton, oilseed, millet and sorghum.) were put into a plastic pot loaded with soil. Then covered with 0.5-2 cm soil, the seeds were allowed to grow in good greenhouse environment. The test plants were treated at 2-3 leaf stage 2 weeks after sowing. The test compounds of the invention were dissolved with acetone respectively, then added with tween-80, and using 1.5 liters per hectare of an emulsible concentrate of methyl oleate as a synergist, and diluted by certain amount of water to certain concentration. The solution was sprayed to the plants with a sprayer. Then the plants were cultured for 3 weeks in the greenhouse, and the experiment result of weed controlling effect after 3 weeks was listed in tables 3-4.

Galium spurium = tested on: Galium spurium
From the text: as §1, §2, §3

Echinochloa crusgalli = tested on: Echinochloa crusgalli
From the text: as §1, §2, §3

Monochoria vaginalis = tested on: Monochoria vaginalis
From the text: as §1, §2, §3

Digitaria sanguinalis = tested on: Digitaria sanguinalis
From the text: as §1, §2, §3

Row | Structure (SMILES) | Activity level (growth inhibition rate) Abutilon theophrasti (Abutilon theophrasti) | Activity level (growth inhibition rate) Galium spurium (Galium spurium) | Activity level (growth inhibition rate) Echinochloa crusgalli (Echinochloa crusgalli) | Activity level (growth inhibition rate) Monochoria Vaginalis (Monochoria vaginalis) | Activity level (growth inhibition rate) Digitaria sanguinalis (Digitaria sanguinalis)
1 | CC(Oc1nc(F)c(Cl)c(N)c1Cl)C(=O)OCc1cnns1 (stereo not drawn) [Compound 166] | 5 (Level 5: the growth inhibition rate is greater than 85%) | 5 (Level 5: the growth inhibition rate is greater than 85%) | 5 (Level 5: the growth inhibition rate is greater than 85%) | 5 (Level 5: the growth inhibition rate is greater than 85%) | 5 (Level 5: the growth inhibition rate is greater than 85%)
2 | Cc1sc(C)c(COC(=O)C(C)Oc2nc(F)c(Cl)c(N)c2Cl)c1C (stereo not drawn) [Compound 155] | 5 (Level 5: the growth inhibition rate is greater than 85%) | 5 (Level 5: the growth inhibition rate is greater than 85%) | 5 (Level 5: the growth inhibition rate is greater than 85%) | 5 (Level 5: the growth inhibition rate is greater than 85%) | 5 (Level 5: the growth inhibition rate is greater than 85%)
3 | CC(Oc1nc(F)c(Cl)c(N)c1Cl)C(=O)OCc1nnnn1C (stereo not drawn) [Compound 138] | 5 (Level 5: the growth inhibition rate is greater than 85%) | 5 (Level 5: the growth inhibition rate is greater than 85%) | 5 (Level 5: the growth inhibition rate is greater than 85%) | 5 (Level 5: the growth inhibition rate is greater than 85%) | 5 (Level 5: the growth inhibition rate is greater than 85%)
4 | CCC(Oc1nc(F)c(Cl)c(N)c1Cl)C(=O)OCc1ccccc1 (stereo not drawn) [Compound 25] | 5 (Level 5: the growth inhibition rate is greater than 85%) | 5 (Level 5: the growth inhibition rate is greater than 85%) | – | 5 (Level 5: the growth inhibition rate is greater than 85%) | –
5 | COCCC(Oc1nc(F)c(Cl)c(N)c1Cl)C(=O)SCc1ccccc1 (stereo not drawn) [Compound 30] | 5 (Level 5: the growth inhibition rate is greater than 85%) | 5 (Level 5: the growth inhibition rate is greater than 85%) | – | 5 (Level 5: the growth inhibition rate is greater than 85%) | –
6 | Nc1c(Cl)c(F)nc(OC(C(=O)SCc2ccccc2)c2cncnc2)c1Cl (stereo not drawn) [Compound 65] | 5 (Level 5: the growth inhibition rate is greater than 85%) | 5 (Level 5: the growth inhibition rate is greater than 85%) | – | 5 (Level 5: the growth inhibition rate is greater than 85%) | –
7 | Nc1c(Cl)c(F)nc(OC(CCl)C(=O)OCc2ccccc2)c1Cl (stereo not drawn) [Compound 37] | 5 (Level 5: the growth inhibition rate is greater than 85%) | 5 (Level 5: the growth inhibition rate is greater than 85%) | – | 5 (Level 5: the growth inhibition rate is greater than 85%) | –
8 | Nc1c(Cl)c(F)nc(OC(C(=O)SCc2ccccc2)c2ccc(C(F)(F)F)cc2)c1Cl (stereo not drawn) [Compound 61] | 5 (Level 5: the growth inhibition rate is greater than 85%) | 5 (Level 5: the growth inhibition rate is greater than 85%) | – | 5 (Level 5: the growth inhibition rate is greater than 85%) | –
